Measured values reported in patent publication US6576628B1, “3-aryl-succinamido-hydroxamic acids, methods for producing said acids and medicaments containing the same” (Roche Diagnostics GmbH, priority 1997, dated 2003).

Experiments:
Format in all cases: biochemical
MMP1 = biological target: T1, MMP1 (Homo sapiens, UniProt P03956); assay: MMP1 inhibition assay in analogy to HNC (MMP8) assay; conditions: for inhibition at 0.2 µM: inhibitor at 200 nM, activated MMP1
T1 sequence (P03956 100-469): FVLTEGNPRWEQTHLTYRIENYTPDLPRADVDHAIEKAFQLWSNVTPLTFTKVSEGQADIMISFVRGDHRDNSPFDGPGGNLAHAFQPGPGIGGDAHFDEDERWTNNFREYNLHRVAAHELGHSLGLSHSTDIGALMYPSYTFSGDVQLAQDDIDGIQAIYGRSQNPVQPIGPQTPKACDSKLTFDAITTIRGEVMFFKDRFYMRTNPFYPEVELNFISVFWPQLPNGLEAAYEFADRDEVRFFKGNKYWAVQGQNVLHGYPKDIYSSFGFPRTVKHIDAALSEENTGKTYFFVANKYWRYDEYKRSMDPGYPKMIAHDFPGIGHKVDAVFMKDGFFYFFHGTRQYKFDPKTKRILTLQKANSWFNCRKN
Protocol: In order to determine the inhibitory potential of compounds of the general formula I on MMPs such as HNC, the catalytic domain is incubated (isolation and purification see Schnierer, S., Kleine, T., Gote, T., Hillemann, A., Knäuper, V., Tschesche, H., Biochem. Biophys. Res. Commun. (1993), 191, 319-326). Subsequently the initial reaction rate of a standard substrate is measured as described in Grams F. et al., FEBS 335 (1993) 76-80). The results are evaluated in the usual manner (see e.g. Dixon, M., Biochem. J. (1953) 55, 170-202).
The synthetic collagenase substrate is a heptapeptide coupled C-terminally with dinitrophenol (DNP). This DNP residue quenches the fluorescence of the Trp of the heptapeptide. After cleavage of a tripeptide containing the DNP residue, the measurable fluorescence increases.
A solution of enzyme and inhibitor is prepared in assay buffer at 25° C. The reaction is started by addition of the substrate to the solution. The cleavage of the fluorogenic substrate is measured by fluorescence spectroscopy (excitation and emission wavelength at 280 and 350 nm respectively). The IC50 value is determined for an inhibitor concentration at which the reaction rate is halved.
An activation is additionally necessary for MMP2 and MMP1.

MMP2 = biological target: T2, MMP2 (Homo sapiens, UniProt P08253); assay: MMP2 inhibition assay in analogy to HNC (MMP8) assay; conditions: activated MMP2; other concentrations than MMP8 assay
T2 sequence (P08253 110-660): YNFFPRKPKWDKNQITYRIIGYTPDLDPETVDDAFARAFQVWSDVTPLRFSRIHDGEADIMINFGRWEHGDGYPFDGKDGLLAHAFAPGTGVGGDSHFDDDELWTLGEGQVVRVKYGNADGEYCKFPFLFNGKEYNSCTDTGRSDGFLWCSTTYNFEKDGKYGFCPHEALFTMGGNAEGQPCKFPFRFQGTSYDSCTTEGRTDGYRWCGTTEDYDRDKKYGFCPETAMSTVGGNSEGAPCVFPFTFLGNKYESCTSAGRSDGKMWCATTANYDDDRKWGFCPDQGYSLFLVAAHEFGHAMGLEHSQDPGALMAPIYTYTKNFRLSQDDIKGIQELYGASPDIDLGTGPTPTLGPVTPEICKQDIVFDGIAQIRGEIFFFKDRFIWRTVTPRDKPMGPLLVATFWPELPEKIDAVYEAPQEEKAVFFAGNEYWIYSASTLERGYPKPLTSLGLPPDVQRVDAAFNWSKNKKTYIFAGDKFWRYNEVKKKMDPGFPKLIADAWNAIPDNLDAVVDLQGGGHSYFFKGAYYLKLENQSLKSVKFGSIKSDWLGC

[1] = biological target: T3, catalytic domain (Met80-Gly242) of the human neutrophilic collagenase (MMP8) (Homo sapiens, UniProt P22894); assay: MMP8 (HNC) catalytic domain fluorogenic substrate inhibition assay; conditions: 8 nM catalytic domain, 10 μM DNP-heptapeptide substrate, 25° C., pH 7.6
T3 construct: catalytic domain (Met80-Gly242) of the human neutrophilic collagenase (MMP8); made in house
T3 sequence (P22894 100-262): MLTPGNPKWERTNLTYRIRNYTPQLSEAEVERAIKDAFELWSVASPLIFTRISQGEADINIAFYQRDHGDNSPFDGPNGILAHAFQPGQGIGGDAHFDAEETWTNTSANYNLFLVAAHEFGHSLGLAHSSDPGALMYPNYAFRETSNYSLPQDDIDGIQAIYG
Protocol: 50 mM Tris/HCl pH 7.6 (Tris=Tris-(hydroxymethyl)-aminomethane)
100 mM NaCl/10 mM CaCl2/5% MeOH (if required)
8 nM catalytic domain (Met80-Gly242) of the human neutrophilic collagenase (MMP8)

| SMILES | inhibition of MMP1 compared with Marimastat (in words) (MMP1) | selectivity relative to MMP1 (in words) (MMP1; compared with Marimastat, MMP2/MMP8 versus MMP1) | inhibition at 0.2 µM (MMP1) | IC50 (MMP2) | IC50 [1] |
| --- | --- | --- | --- | --- | --- |
| CNC(=O)[C@@H](NC(=O)C(c1ccc(-c2ccccc2)cc1)C(O)C(=O)NO)C(C)(C)C (mixture of isomers) [example 1.5, 2-Biphenyl-4-yl-N1-((1S)-2,2-dimethyl-1-methyl-carbamoyl-propyl)-3,N4-dihydroxy-succinamide] | substantially poorer than by Marimastat | clear selectivity advantage relative to MMP1 | 20% | 23 nM | 18 nM |
| CNC(=O)[C@@H](NC(=O)[C@H](CC(C)C)[C@H](O)C(=O)NO)C(C)(C)C [Marimastat, N2-[3S-hydroxy-4-(N-hydroxyamino)-2R-isobutyl-succinyl)-L-tert-leucine-N1-methylamide, reference compound] |  |  | 100% |  |  |
